The data set relates to CYP3A4/5. As to the kind of experiment: CYP inhibition in mixed human liver microsomes, CYP3A4/5 (midazolam). The class given is in vitro ADME. As to conditions: pH 7.4, mixed human liver microsomes 0.2 mg/mL, read-out: Median inhibitory concentration (IC50) CYP 3A4/5. The method, then: Mixed human liver microsomes from 150 donors (purchased from Corning, catalog number 452117) were used to evaluate the representative substrate metabolic responses of the five main human CYP subtypes (CYP1A2, CYP2C9, CYP2C19, CYP2D6 and CYP3A4/5). The influence of different concentrations of test compounds on the metabolic responses of phenacetin (CYP1A2), diclofenac sodium (CYP2C9), S-mephenytoin (CYP2C19), bufurolol hydrochloride (2D6) and midazolam (CYP3A4/5) was determined by liquid chromatography tandem mass spectrometry (LC/MS/MS).
200 μL of the reaction system (100 mmol/L phosphate buffer, pH 7.4, containing 0.3% DMSO, 0.6% acetonitrile and 0.1% methanol by volume respectively) with 30 µM phenacetin, 10 μM diclofenac sodium, 35 μM S-mephenytoin, 5 μM bufurolol hydrochloride, 3 μM midazolam, 1 mM NADPH, test compound (at a concentration of 0.1, 0.3, 1, 3, 10 and 30 μmol/L respectively) or positive compound or blank control and mixed human liver microsomes (0.2 mg/mL) was incubated at 37° C. for 5 minutes. […]
The peak area was calculated based on the chromatograms. The residual activity ratio (%) was calculated using the following equation: […]
The CYP median inhibitory concentration (IC50) was calculated by Excel XLfit 5.3.1.3.
(In general: Liver microsomes are a subcellular fraction often used to study metabolism.)

Structures are written as SMILES.

`[2H]C([2H])([2H])Nc1nccc(Sc2c(C)nc(N3CCC4(CC3)Cc3ncccc3[C@H]4N)n3ccnc23)c1Cl` [Example 3, (S)-1′-(8-((3-Chloro-2-((methyl-d3)amino)pyridin-4-yl)thio)-7-methylimidazo[1,2-c]pyrimidin-5-yl)-5,7-dihydrospiro[cyclopenta[b]pyridine-6,4′-piperidin]-5-amine]: the IC50 at 5 min was above 20 µM.

The values are drawn from patent US20220380385A1, “PYRIMIDINE FIVE-MEMBERED NITROGEN HETEROCYCLIC DERIVATIVE, PREPARATION METHOD THEREOF AND PHARMACEUTICAL USE THEREOF” (TUOJIE BIOTECH(SHANGHAI) CO., LTD., priority 2019, published 2022).
